Results on 2 compounds are retold here after patent US12702686B2, “Antimicrobial therapy” (priority 2021, dated 2026).

Where no end group is shown, it is not given here.

The subject of series [1] is Primary normal human keratinocytes (NHEK). Put plainly: LDH release cytotoxicity in keratinocytes. In kind it is cell-based. The settings on record: 24 h, increasing concentrations. The procedure: NHEKs (ThermoFisher) were cultured in EpiLife medium containing 60 μM CaCl2) (ThermoFisher) supplemented with 1× human keratinocyte growth supplement (ThermoFisher) and 1× Antibiotic Antimycotic (Millipore Sigma) at 37° C., 5% CO 2. All experiments performed on NHEKs were between passages 3 and 5 with cells at 70-80% confluency.
In general terms: LDH leaks from cells whose membrane has failed.

The test system of the next series is S. pseudintermedius ST71. Put plainly: Minimum inhibitory concentration, broth micro dilution. In kind it is cell-based, Staphylococcus pseudintermedius. The settings on record: synthetic peptides, 18 h incubation. The procedure:
MIC values were determined using a broth micro dilution method. Bacterial cells were grown to mid-late log phase, to an OD600 nm value of roughly 1.0 for each bacterial strain and then normalized to 1×10^7 CFU/mL. The PSMβ peptides or butanol extracts were dissolved in DMSO to a stock concentration of 10 mg/ml. The stock concentrations of antibiotics that were water-soluble were prepared with H2O or 100% ethanol if water-insoluble. The 1×10^7 CFU/ml bacterial cultures (10 μl) were aliquoted into 96-well microtiter plates and mixed with 95 μL of media with or without 2-fold dilutions of the conditioned supernatant, PSMβ peptides, butanol extracts or antibiotics and incubated for 16-18 h at 30° C. with shaking at 250 rpm. Growth inhibition was determined by measuring the OD600 nm readings of each well using a microplate reader (SpectraMax iD3, Molecular Devices). The MIC of each bacterial strain was determined by the lowest peptide concentration that inhibited more than 80% bacterial growth.

Turning to `CC[C@H](C)[C@H](NC(=O)[C@H](Cc1c[nH]c2ccccc12)NC(=O)[C@H](CCCCN)NC(=O)[C@@H](NC(=O)[C@H](CC(C)C)NC(=O)[C@H](CC(=O)O)NC(=O)CNC(=O)[C@@H](NC(=O)[C@@H](NC(=O)[C@H](CO)NC(=O)[C@@H](NC(=O)[C@@H](NC(=O)[C@H](CC(=O)O)NC(=O)[C@H](C)NC(=O)[C@H](C)NC(=O)[C@H](CCSC)NC=O)[C@@H](C)CC)[C@@H](C)CC)[C@@H](C)O)[C@@H](C)CC)C(C)C)C(=O)N[C@H](C(=O)N[C@@H](CC(=O)O)C(=O)N[C@H](C(=O)N[C@H](C(=O)N[C@@H](CC(N)=O)C(=O)N[C@@H](CCCCN)C(=O)N[C@@H](Cc1ccccc1)C(=O)N[C@@H](CCCCN)C(=O)N[C@@H](CCCCN)C(=O)O)C(C)C)[C@@H](C)O)[C@@H](C)CC` [PSMγ], in series [1], the “cytotoxicity by LDH release” value was “highly cytotoxic”.

Regarding “Non-Formyl-MSKLTRVIVTSIMTVGFLTATLGLTAGNADAKLEGNGTLSQKQYQRLASQQF (H-MSKLTRVIVTSIMTVGFLTATLGLTAGNADAKLEGNGTLSQKQYQRLASQQF; listed as Staphylococcus felis) [EF-hand domain-containing peptide]”, the “concentration at which S. pseudintermedius growth was inhibited” value in the series with S. pseudintermedius ST71 was more than 200 µg/mL.
